# Source: patent US9175003B2, “Substituted azoanthracene derivatives and intermediates for preparation thereof” (TransTech Pharma, LLC, priority 2009, dated 2015)
# Molecular target: human GLP-1 receptor (Homo sapiens (Human), UniProt P43220)
# Settings: read-out: Mean EC50; cAMP, HTRF detection, 30 min at 37° C., HEK-293 cells expressing cloned human GLP-1 receptor
# human GLP-1 receptor, sequence (P43220 24-463): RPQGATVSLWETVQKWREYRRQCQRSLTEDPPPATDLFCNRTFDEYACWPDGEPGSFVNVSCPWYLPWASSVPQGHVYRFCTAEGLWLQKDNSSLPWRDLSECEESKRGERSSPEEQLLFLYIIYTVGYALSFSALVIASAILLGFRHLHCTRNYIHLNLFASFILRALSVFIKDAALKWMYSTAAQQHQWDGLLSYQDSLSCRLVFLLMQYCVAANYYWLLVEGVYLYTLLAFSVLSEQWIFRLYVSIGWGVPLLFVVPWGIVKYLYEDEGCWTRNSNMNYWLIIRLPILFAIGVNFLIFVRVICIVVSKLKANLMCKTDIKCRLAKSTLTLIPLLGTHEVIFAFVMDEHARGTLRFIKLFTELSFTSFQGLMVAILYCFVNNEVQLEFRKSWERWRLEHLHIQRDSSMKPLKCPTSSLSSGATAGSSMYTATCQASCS
row,Compound,EC50 [nM]
1,"N#Cc1ccc(-c2ccc(C[C@H](NC(=O)[C@@H]3Cc4cc5c(cc4CN3C(=O)c3ccoc3)OC(c3ccc(OCc4ccc(Cl)c(Cl)c4)cc3)CO5)C(=O)O)cc2)cc1 (stereo in doubt) [Example 27, (S)-3-(4′-Cyano-biphenyl-4-yl)-2-{[(S)-3-[4-(3,4-dichloro-benzyloxy)-phenyl]-7-(furan-3-carbonyl)-2,3,6,7,8,9-hexahydro-[1,4]dioxino[2,3-g]isoquinoline-8-carbonyl]-amino}-propionic acid]",843
2,"Cn1ccnc1CN1Cc2cc3c(cc2C[C@H]1C(=O)N[C@@H](Cc1ccc(-c2ccc(C#N)cc2)cc1)C(=O)O)OCC(c1ccc(OCc2ccc(Cl)c(Cl)c2)cc1)O3 (stereo in doubt) [Example 40, (S)-3-(4′-Cyano-biphenyl-4-yl)-2-{[(S)-3-[4-(3,4-dichloro-benzyloxy)-phenyl]-7-(1-methyl-1H-imidazol-2-ylmethyl)-2,3,6,7,8,9-hexahydro-[1,4]dioxino[2,3-g]isoquinoline-8-carbonyl]-amino}-propionic acid]",310
3,"CC(=O)N1CC(c2ccc(OCc3ccc(Cl)c(Cl)c3)cc2)Oc2cc3c(cc21)C[C@@H](C(=O)N[C@@H](Cc1ccc(-c2ccc(C#N)cc2)cc1)C(=O)O)N(C(=O)c1ccccc1)C3 (stereo in doubt) [Example 53, (S)-2-({(S)-1-Acetyl-6-benzoyl-3-[4-(3,4-dichloro-benzyloxy)-phenyl]-2,3,5,6,7,8-hexahydro-1H-4-oxa-1,6-diaza-anthracene-7-carbonyl}-amino)-3-(4′-cyano-biphenyl-4-yl)-propionic acid]",380
4,"Cc1nc(NC(=O)C2CCC2)sc1S(=O)(=O)N1Cc2cc3c(cc2C[C@H]1C(=O)N[C@@H](Cc1ccc(-c2ccc(C#N)cc2)cc1)C(=O)O)OCC(c1ccc(OCc2ccc(Cl)c(Cl)c2)cc1)O3 (stereo in doubt) [Example 55, (S)-3-(4′-Cyano-biphenyl-4-yl)-2-({(S)-7-[2-(cyclobutanecarbonyl-amino)-4-methyl-thiazole-5-sulfonyl]-3-[4-(3,4-dichloro-benzyloxy)-phenyl]-2,3,6,7,8,9-hexahydro[1,4]dioxino[2,3-g]isoquinoline-8-carbonyl}-amino)-propionic acid]",360
5,"CCNc1nc(C)c(S(=O)(=O)N2Cc3cc4c(cc3C[C@H]2C(=O)N[C@@H](Cc2ccc(-c3ccc(C#N)cc3)cc2)C(=O)O)OCC(c2ccc(OCc3ccc(C)c(Cl)c3)cc2)O4)s1 (stereo in doubt) [Example 63, (S)-2-{[(S)-3-[4-(3-Chloro-4-methyl-benzyloxy)-phenyl]-7-(2-ethylamino-4-methyl-thiazole-5-sulfonyl)-2,3,6,7,8,9-hexahydro-[1,4]dioxino[2,3-g]isoquinoline-8-carbonyl]-amino}-3-(4′-cyano-biphenyl-4-yl)-propionic acid]",277
6,"Cc1nc(NC(=O)C(F)(F)F)sc1S(=O)(=O)N1Cc2cc3c(cc2C[C@H]1C(=O)N[C@@H](Cc1ccc(-c2ccc(C#N)cc2)cc1)C(=O)O)OCC(c1ccc(OCc2ccc(Cl)c(Cl)c2)cc1)O3 (stereo in doubt) [Example 70, (S)-3-(4′-Cyano-biphenyl-4-yl)-2-({(S)-3-[4-(3,4-dichloro-benzyloxy)-phenyl]-7-[4-methyl-2-(2,2,2-trifluoro-acetylamino)-thiazole-5-sulfonyl]-2,3,6,7,8,9-hexahydro-[1,4]dioxino[2,3-g]isoquinoline-8-carbonyl}-amino)-propionic acid]",259
7,"Cc1sc(N)nc1S(=O)(=O)N1Cc2cc3c(cc2C[C@H]1C(=O)N[C@@H](Cc1ccc(-c2ccc(C#N)cc2)cc1)C(=O)O)OCC(c1ccc(OCc2ccc(Cl)c(Cl)c2)cc1)O3 (stereo in doubt) [Example 95, (S)-2-({(S)-7-(2-Amino-5-methyl-thiazole-4-sulfonyl)-3-[4-(3,4-dichloro-benzyloxy)-phenyl]-2,3,6,7,8,9-hexahydro-[1,4]dioxino[2,3-g]isoquinoline-8-carbonyl}-amino)-3-(4′-cyano-biphenyl-4-yl)-propionic acid]",462
8,"CCNc1nc(S(=O)(=O)N2Cc3cc4c(cc3C[C@H]2C(=O)N[C@@H](Cc2ccc(-c3ccc(C#N)cc3)cc2)C(=O)O)OCC(c2ccc(OCc3ccc(Cl)c(Cl)c3)cc2)O4)c(C)s1 (stereo in doubt) [Example 96, (S)-3-(4′-Cyano-biphenyl-4-yl)-2-{[(S)-3-[4-(3,4-dichloro-benzyloxy)-phenyl]-7-(2-ethylamino-5-methyl-thiazole-4-sulfonyl)-2,3,6,7,8,9-hexahydro-[1,4]dioxino[2,3-g]isoquinoline-8-carbonyl]-amino}-propionic acid]",185
9,"Cc1nc(NCC2CCC2)sc1S(=O)(=O)N1Cc2cc3c(cc2C[C@H]1C(=O)N[C@@H](Cc1ccc(-c2ccc(C#N)cc2)cc1)C(=O)O)OCC(c1ccc(OCc2ccc(Cl)c(Cl)c2)cc1)O3 (stereo in doubt) [Example 105, (S)-3-(4′-Cyano-biphenyl-4-yl)-2-({(S)-7-[2-(cyclobutylmethyl-amino)-4-methyl-thiazole-5-sulfonyl]-3-[4-(3,4-dichloro-benzyloxy)-phenyl]-2,3,6,7,8,9-hexahydro-[1,4]dioxino[2,3-g]isoquinoline-8-carbonyl}-amino)-propionic acid]",321
10,"CCCCNc1nc(C)c(S(=O)(=O)N2Cc3cc4c(cc3C[C@H]2C(=O)N[C@@H](Cc2ccc(-c3ccc(C#N)cc3)cc2)C(=O)O)OCC(c2ccc(OCc3ccc(Cl)c(Cl)c3)cc2)O4)s1 (stereo in doubt) [Example 109, (S)-2-({(S)-7-(2-Butylamino-4-methyl-thiazole-5-sulfonyl)-3-[4-(3,4-dichloro-benzyloxy)-phenyl]-2,3,6,7,8,9-hexahydro-[1,4]dioxino[2,3-g]isoquinoline-8-carbonyl}-amino)-3-(4′-cyano-biphenyl-4-yl)-propionic acid]",298
11,"Cc1nc(NCCC(C)C)sc1S(=O)(=O)N1Cc2cc3c(cc2C[C@H]1C(=O)N[C@@H](Cc1ccc(-c2ccc(C#N)cc2)cc1)C(=O)O)OCC(c1ccc(OCc2ccc(Cl)c(Cl)c2)cc1)O3 (stereo in doubt) [Example 110, (S)-3-(4′-Cyano-biphenyl-4-yl)-2-({(S)-3-[4-(3,4-dichloro-benzyloxy)-phenyl]-7-[4-methyl-2-(3-methyl-butylamino)-thiazole-5-sulfonyl]-2,3,6,7,8,9-hexahydro-[1,4]dioxino[2,3-g]isoquinoline-8-carbonyl}-amino)-propionic acid]",356
12,"CC(=O)Nc1ccc(S(=O)(=O)N2Cc3cc4c(cc3C[C@H]2C(=O)N[C@@H](Cc2ccc(-c3ccc(C#N)cc3)cc2)C(=O)O)OCC(c2ccc(OCc3ccc(Cl)c(Cl)c3)cc2)O4)c(C)c1 (stereo in doubt) [Example 111, (S)-2-({(S)-7-(4-Acetylamino-2-methyl-benzenesulfonyl)-3-[4-(3,4-dichloro-benzyloxy)-phenyl]-2,3,6,7,8,9-hexahydro-[1,4]dioxino[2,3-g]isoquinoline-8-carbonyl}-amino)-3-(4′-cyano-biphenyl-4-yl)-propionic acid]",44
13,"N#Cc1ccc(-c2ccc(C[C@H](NC(=O)[C@@H]3Cc4cc5c(cc4CN3S(=O)(=O)c3ccc(N4CCOCC4)nc3)OC(c3ccc(OCc4ccc(Cl)c(Cl)c4)cc3)CO5)C(=O)O)cc2)cc1 (stereo in doubt) [Example 112, (S)-3-(4′-Cyano-biphenyl-4-yl)-2-{[(S)-3-[4-(3,4-dichloro-benzyloxy)-phenyl]-7-(6-morpholin-4-yl-pyridine-3-sulfonyl)-2,3,6,7,8,9-hexahydro-[1,4]dioxino[2,3-g]isoquinoline-8-carbonyl]-amino}-propionic acid]",48
14,"Cc1nc(NC(=O)C(C)C)sc1S(=O)(=O)N1Cc2cc3c(cc2C[C@H]1C(=O)N[C@@H](Cc1ccc(-c2ccc(C#N)cc2)cc1)C(=O)O)OCC(c1ccc(OCc2ccc(Cl)c(Cl)c2)cc1)O3 (stereo in doubt) [Example 114, (S)-3-(4′-Cyano-biphenyl-4-yl)-2-{[(S)-3-[4-(3,4-dichloro-benzyloxy)-phenyl]-7-(2-isobutyrylamino-4-methyl-thiazole-5-sulfonyl)-2,3,6,7,8,9-hexahydro-[1,4]dioxino[2,3-g]isoquinoline-8-carbonyl]-amino}-propionic acid]",232
15,"CC(=O)Nc1ccc(S(=O)(=O)N2Cc3cc4c(cc3C[C@H]2C(=O)N[C@@H](Cc2ccc(-c3ccc(C#N)cc3)cc2)C(=O)O)OCC(c2ccc(OCc3ccc(Cl)c(Cl)c3)cc2)O4)cc1 (stereo in doubt) [Example 115, (S)-2-({(S)-7-(4-Acetylamino-benzenesulfonyl)-3-[4-(3,4-dichloro-benzyloxy)-phenyl]-2,3,6,7,8,9-hexahydro-[1,4]dioxino[2,3-g]isoquinoline-8-carbonyl}-amino)-3-(4′-cyano-biphenyl-4-yl)-propionic acid]",163
16,"Cc1nc(N)sc1C(=O)N1Cc2cc3c(cc2C[C@H]1C(=O)N[C@@H](Cc1ccc(-c2ccc(C#N)cc2)cc1)C(=O)O)OCC(c1ccc(OCc2ccc(Cl)c(Cl)c2)cc1)O3 (stereo in doubt) [Example 126, (S)-2-({(S)-7-(2-Amino-4-methyl-thiazole-5-carbonyl)-3-[4-(3,4-dichloro-benzyloxy)-phenyl]-2,3,6,7,8,9-hexahydro-[1,4]dioxino[2,3-g]isoquinoline-8-carbonyl}-amino)-3-(4′-cyano-biphenyl-4-yl)-propionic acid]",312
17,"Cc1noc(C)c1S(=O)(=O)N1Cc2cc3c(cc2C[C@H]1C(=O)N[C@@H](Cc1ccc(-c2ccc(C#N)cc2)cc1)C(=O)O)OCC(c1ccc(OCc2ccc(Cl)c(Cl)c2)cc1)O3 (stereo in doubt) [Example 128, (S)-3-(4′-Cyano-biphenyl-4-yl)-2-{[(S)-3-[4-(3,4-dichloro-benzyloxy)-phenyl]-7-(3,5-dimethyl-isoxazole-4-sulfonyl)-2,3,6,7,8,9-hexahydro-[1,4]dioxino[2,3-g]isoquinoline-8-carbonyl]-amino}-propionic acid]",178
